In patent US20090104126A1, “Sulfamate Compounds and Uses Thereof” (Solvay Pharmaceuticals GmbH, priority 2007, published 2009):
Where two headings read alike, the source gives them in different places. Marks after values point to notes of the source that are not given here.

What was measured:
[1] = target: T1, human carbonic anhydrase isoenzyme I from erythrocytes (Homo sapiens, UniProt P00915); assay: In vitro inhibition of human carbonic anhydrase isoenzyme I (dansylamide fluorescence); type: biochemical
T1 construct: human carbonic anhydrase isoenzyme I from erythrocytes (Sigma-Aldrich); purchased Sigma-Aldrich; host or cells: human erythrocytes
Experimental: (§1) The test compounds of general Formula I in 96 well microplates were diluted with aqua bidest by using an automatic pipettor (CyBiWell®). From the different dilution plates, aliquots of 20 μl were transferred to the 96 well black assay plates with a pipetting station (Tecan Genesis®). In a second step, 148 μl of potassium phosphate buffer (20 mM, pH 7.4) was added, and as a third step, 20 μl of enzyme solution (1 μM human carbonic anhydrase isoenzyme I from erythrocytes (Sigma-Aldrich) or human carbonic anhydrase II from erythrocytes (Sigma Aldrich), or recombinant human carbonic anhydrase isoenzyme VB (R&D Systems), dissolved in potassium phosphate buffer) incubated for 60 min at room temperature and the fluorescence signal (Tecan Ultra® fluorescence reader; excitation wavelength: 280 nm; emission wavelength: 465 nm) read at the end of the preincubation period (FLU-1). After the preincubation time, 20 μl of aqueous dansylamide solution (1 mM dansylamide (Sigma-Aldrich), dissolved in hydrochloric acid) were added and the fluorescence signal read every 10 min for a period of 60 min at 37° C. For calculation, the fluorescence data of the time point 60 min (FLU-2) were used. The total volume of assay mixture amounted to 208 μl. […] Each microplate also contained blanks without compound and enzyme, controls without compound and ethoxzolamide (final concentration 5×10^-[…]) as validation standard compound. All data reflect single measurements. Data were expressed as % inhibition after calculation by the formula: [formula] […] Concentration action figures were calculated by applying the Prism algorithm for nonlinear regression (curve-fit): sigmoidal dose response with variable slope and the constraints: top: 100 and bottom 0.

[2] = target: T2, human carbonic anhydrase II from erythrocytes (Homo sapiens, UniProt P00918); assay: In vitro inhibition of human carbonic anhydrase II (dansylamide fluorescence); type: biochemical
T2 construct: human carbonic anhydrase II from erythrocytes (Sigma Aldrich); purchased Sigma Aldrich; host or cells: human erythrocytes
Experimental: as §1

[3] = target: T3, recombinant human carbonic anhydrase isoenzyme VB (Homo sapiens, UniProt Q9Y2D0); assay: In vitro inhibition of human carbonic anhydrase isoenzyme VB (dansylamide fluorescence); type: biochemical; settings: final compound concentration 10 μM
T3 construct: purchased R&D Systems
Experimental: as §1

male C57BI/6 mice = assay: Acute in vivo food intake test in mice; settings: high caloric diet, 50 mg/kg/day oral gavage twice daily for 3 days, day 3
Experimental: The studies were carried out in male C57BI/6 mice (n=12 per group). The mice were kept on an inverted 12/12 h light/dark cycle (lights on 22:00). They were allowed food (high caloric diet) and water ad libitum. Food intake and water consumption was measured daily. The test compound of general Formula I was suspended in 1% methyl hydroxyethyl cellulose in water and 0.1% (v/v) of poloxamer 188 and administered by oral gavage at a dose of 50 mg/kg/day twice daily for 3 days. One half of the dose was administered at 8.00-10.00 h; the remaining half of the dose was administered between 14.00-15.00 h.

[4] = tested on: embyronal hippocampal neurons; assay: Effect on neurite outgrowth from hippocampal neurons; type: cell-based, rat; settings: for neurite mean length (% of control): 3 days exposure, two cultures normalized
Experimental: Neurite outgrowth is an important parameter to evaluate the neurotrophic potency of a compound. […] The hippocampal neurons from pregnant Wistar female rats were dissociated by trypsinization for 30 min at 37° C. (trypsin-EDTA, Gibco) in presence of DNAse I (Roche, Meylan). The reaction was stopped by addition of medium of Eagle modified by Dulbecco (DMEM; Gibco) with 10% of fetal bovine serum (Gibco). The suspension was triturated with a 10-ml pipette and using a 21G needle syringe and centrifuged at 350×g for 10 min at room temperature. The resulting pellet was re-suspended in culture medium containing Neurobasal medium (Gibco) with 2% of B27 supplement (Gibco) and 2 mM of glutamine (Gibco). Viable cells were counted in a Neubauer cytometer using the trypan blue exclusion test (Sigma) and seeded on the basis of 30 000 cells per Petri dish (Nunc) precoated with poly-L-lysine (Sigma). Cells were allowed to adhere 2 h and maintained in a humidified incubator at 37° C. in 5% CO2-95% air atmosphere.
After adhesion, vehicle and test compound at different concentrations (1 μM, 3 μM, 10 μM and 30 μM) were added to the medium. BDNF (50 ng/ml, 3.7 nM) was included as positive control for neurite growth. The test compound was tested in two independent cultures in parallel with control and BNDF cultures.
After the 3 days exposure of the neurons to the test compounds, cultures were washed in phosphate-buffered saline (PBS, Gibco) and fixed using 2.5% glutaraldehyde in PBS. Several pictures (˜80) of cells with neurites without any branching were taken per condition using a digital camera (Coolpix 995; Nikon) fixed on the microscope (Nikon, objective 40×). Neurites were outlined on computer screen using imaging software (Image-Pro Plus, France), which automatically calculates the length.

mouse = settings: for number of deaths after ECS: 20 mice per group, vehicle 1; for ECS intensity administered, mean ± s.e.m.: vehicle 36.5 ± 1.0
Experimental: The method, which detects pro-convulsant or anti-convulsant activity, follows that described by Swinyard et al. (J. Pharmacol. Exp. Ther. 1952, 106, 319-330). Mice were administered ECS (rectangular current, 0.4 s, 50 Hz) via corneal electrodes connected to a constant current shock generator (Ugo Basile: Type 7801).
A group wherein the vehicle is administered orally 60 minutes before the ECS serves a control. Diazepam (8 mg/kg p.o.), administered under the same experimental conditions, served as a positive anti-convulsive reference substance.
If there were also no convulsions in animal no 2, then the current was further increase in the following animals (increases of 10 mA) until the first tonic convulsion was observed. Once the first tonic convulsion was observed, the intensity of ECS was decreased by 5 mA for the next animal and then the intensity was decreased or increased by 5 mA from animal to animal depending on whether or the previous animal convulsed or not. The minimum intensity given was 25 mA and the maximum intensity given was 95 mA. The electroconvulsive shock threshold was determined as the mean current administered in the last 20 mice.
The number of deaths is also recorded approximately 30 minutes after the animal has been tested for convulsions. The test was performed blind. A positive percent change indicates an anticonvulsant effect. A negative percent change indicates a proconvulsant effect.
Quantitative data were analyzed by comparing treated groups with vehicle control using unpaired Student's t tests. Quantal data were analyzed by comparing treated groups with vehicle control using Fisher's Exact Probability tests.

[5] = tested on: STZ-diabetic male Sprague Dawley rats; assay: Diabetic-induced neuropathic pain: cold bath test (cold allodynia) in STZ rats; type: in vivo, rat; settings: day 10
[6] = tested on: STZ-diabetic male Sprague Dawley rats; assay: Diabetic-induced neuropathic pain: warm plate (38° C.) test (warm allodynia) in STZ rats; type: in vivo, rat; settings: day 10
[7] = tested on: embyronal hippocampal neurons; assay: Effect on neurite outgrowth from hippocampal neurons; type: cell-based, rat; settings: BDNF 1.85 nM (positive control), 3 days exposure
[8] = final compound concentration 0.1 μM
[9] = final compound concentration 1 μM

T1 sequence (P00915 whole entry): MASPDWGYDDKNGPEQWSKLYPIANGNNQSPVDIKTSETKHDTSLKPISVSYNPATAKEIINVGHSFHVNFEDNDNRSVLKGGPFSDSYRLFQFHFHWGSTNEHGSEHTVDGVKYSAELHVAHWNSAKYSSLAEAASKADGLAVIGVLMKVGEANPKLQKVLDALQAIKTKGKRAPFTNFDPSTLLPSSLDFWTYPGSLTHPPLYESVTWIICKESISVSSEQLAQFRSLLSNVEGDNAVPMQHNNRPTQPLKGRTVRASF
T3 sequence (Q9Y2D0 34-317): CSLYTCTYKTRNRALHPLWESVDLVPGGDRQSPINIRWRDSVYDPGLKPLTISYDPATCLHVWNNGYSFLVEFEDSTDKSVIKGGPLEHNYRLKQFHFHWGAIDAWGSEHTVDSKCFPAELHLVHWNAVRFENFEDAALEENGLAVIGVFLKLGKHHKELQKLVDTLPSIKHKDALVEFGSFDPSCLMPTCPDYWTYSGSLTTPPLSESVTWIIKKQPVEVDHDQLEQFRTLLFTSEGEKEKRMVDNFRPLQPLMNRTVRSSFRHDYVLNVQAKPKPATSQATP

## CC1(C)[C@H]2CC[C@H](COS(N)(=O)=O)[C@@H]1C2 [Compound 1, [(1S,2S,5S)-6,6-dimethylbicyclo[3.1.1]hept-2-yl]methyl-sulfamate]
[1]; [8]
  inhibition at 0.1 µM: 85%
[2]; [8]
  inhibition at 0.1 µM: 56%
[3]
  inhibition at 10 µM: 70%
Male C57BI/6 mice
  food intake [% of control]: 69.4% (day 3) % of control
[4]; 1 μM
  neurite mean length (% of control): 110.9 % of control
[4]; 3 μM
  neurite mean length (% of control): 108.9 % of control
[4]; 10 μM
  neurite mean length (% of control): 113.2 % of control
[4]; 30 μM
  neurite mean length (% of control): 114.5 % of control
mouse; 10 mg/kg p.o. −60 min
  number of deaths after ECS: 2
  ECS intensity administered, mean ± s.e.m.: 40.0 ± 1.2 mA
mouse; 30 mg/kg p.o. −60 min
  number of deaths after ECS: 0
  ECS intensity administered, mean ± s.e.m.: 43.5 ± 1.5 mA
mouse; 100 mg/kg p.o. −60 min
  number of deaths after ECS: 1
  ECS intensity administered, mean ± s.e.m.: 88.0 ± 2.1 mA
[5]; 10 mg/kg p.o. 1 h before test
  % inhibition (compared to STZ/vehicle group), cold bath test: 62* %
[5]; 30 mg/kg p.o. 1 h before test
  % inhibition (compared to STZ/vehicle group), cold bath test: 58* %
[5]; 50 mg/kg p.o. 1 h before test
  % inhibition (compared to STZ/vehicle group), cold bath test: 72* %
[6]; 10 mg/kg p.o. 1 h before test
  % inhibition (compared to STZ/vehicle group), warm plate test: 53%
[6]; 30 mg/kg p.o. 1 h before test
  % inhibition (compared to STZ/vehicle group), warm plate test: 59* %
[6]; 50 mg/kg p.o. 1 h before test
  % inhibition (compared to STZ/vehicle group), warm plate test: 64* %

## CC1(C)[C@@H]2CC[C@@H](COS(N)(=O)=O)[C@H]1C2 [Compound 2, [(1R,2R,5R)-6,6-dimethylbicyclo[3.1.1]hept-2-yl]methyl-sulfamate]
[1]; [8]
  inhibition at 0.1 µM: 70%
[2]; [8]
  inhibition at 0.1 µM: 33%
[3]
  inhibition at 10 µM: 75%

## CC1(C)[C@H]2CC[C@@H](CCOS(N)(=O)=O)[C@@H]1C2 [Compound 3, [(1S,2S,5S)-6,6-dimethylbicyclo[3.1.1]hept-2-yl]ethyl-sulfamate]
[1]; [8]
  % Inhibition: 28%
[2]; [8]
  % Inhibition: 15%
[3]
  % Inhibition: 55%

## CC1(C)[C@H]2CC[C@@H](COS(N)(=O)=O)[C@@H]1C2 [Compound 4, [(1S,2R,5S)-6,6-dimethylbicyclo[3.1.1]hept-2-yl]methylsulfamate]
[1]; [9]
  % Inhibition: 80%
[2]; [9]
  % Inhibition: 72%
[3]
  % Inhibition: 53%

## CN1C(=O)CN=C(c2ccccc2)c2cc(Cl)ccc21 [Diazepam, reference compound]
mouse; 8 mg/kg p.o. −60 min
  ECS intensity % change from control: +124%
  number of deaths after ECS: 0
  ECS intensity administered, mean ± s.e.m.: 81.8 ± 3.0 mA

## (1R,4S)-bicyclo[2.2.1]hept-2-yl-methylsulfamate [Compound 5]
[1]; [9]
  % Inhibition: 91%
[2]; [9]
  % Inhibition: 77%
[3]
  % Inhibition: 41%

## (4S)-bicyclo[2.2.1]hept-5-en-2-ylmethylsulfamate [Compound 6]
[1]; [9]
  % Inhibition: 94%
[2]; [9]
  % Inhibition: 76%
[3]
  % Inhibition: 40%

B1: BDNF: BDNF (50 ng/ml, 3.7 nM) was included as positive control for neurite growth (protein, UniProt P23560 19-247, looked up)
Neurotrophic factor BDNF …: APMKEANIRGQGGLAYPGVRTHGTLESVNGPKAGSRGLTSLADTFEHVIEELLDEDQKVRPNEENNKDADLYTSRVMLSSQVPLEPPLLFLLEEYKNYLDAANMSMRVRRHSDPARRGELSVCDSISEWVTAADKKTAVDMSGGTVTVLEKVPVSKGQLKQYFYETKCNPMGYTKEGCRGIDKRHWNSQCRTTQSYVRALTMDSKKRIGWRFIRIDTSCVCTLTIKRGR
[4]; 50 ng/ml BDNF, both cultures normalized
  increase in neurite length normalized by mean control neurite length: 16.4%
[4]; 50 ng/ml BDNF, first culture
  mean increase in neurite length: 24.5 μm
[4]; 50 ng/ml BDNF, first culture, n=79 (control 105.7±3.2)
  neurite length (mean±SEM): 131.6±3.1 μm
[4]; 50 ng/ml BDNF, second culture
  mean increase in neurite length: 8.6 μm
[4]; 50 ng/ml BDNF, second culture, n=82 (control 109.3±3.1)
  neurite length (mean±SEM): 118.7±2.8 μm
[7]
  neurite mean length (% of control): 116.4 % of control
